The values below come from paper PMC8867545 (ACS Omega, 2022).

Broadly, the Km is the substrate concentration at which the rate is half of its maximum.

The test system of assay [1] is β-glucosidase (β-Glcase). As to the kind of experiment: UV-vis absorption at […] nm, Lineweaver-Burk. It is filed as biochemical, Prunus dulcis. The following applies: 1x PBS pH 5.33, room temperature, 100 μg/mL enzyme, 10-500 μM substrate.
In assay [2] the test system is β-glucosidase (β-Glcase). The assay is described as follows: UV-vis absorption at […] nm, Lineweaver-Burk. Particulars: 1x PBS pH 5.33, room temperature, 100 μg/mL enzyme, 5-200 μM substrate. In kind it is biochemical, Prunus dulcis.

Take `N#Cc1cccnc1S[C@@H]1O[C@H](CO)[C@@H](O)[C@H](O)[C@H]1O` [Glc-o-MPN]: the Km in assay [1] came to 228 µM.
Turning to `N#Cc1ccc(S[C@@H]2O[C@H](CO)[C@@H](O)[C@H](O)[C@H]2O)nc1` [Glc-p-MPN], the Km in assay [2] worked out at 162 µM.
